From publication PMC4661110 (Bioorganic & medicinal chemistry, 2015)
In brackets after ≈: the same amount, converted by molar mass.

Assays:
[1] = system: S. aureus Mu50; assay: Bacteriostatic effect; type: cell-based; settings: for MIC fold higher than that of SCA-50: S. aureus Mu50
[2] = system: S. aureus NorA and MepA efflux pump strains; type: cell-based; settings: confirmed by MIC, Table 3
[3] = target: T1, SaSecA1 (Staphylococcus aureus, UniProt O06446); type: biochemical; settings: liposomes-oocytes, different concentrations of ATP
T1 sequence (O06446 1-843): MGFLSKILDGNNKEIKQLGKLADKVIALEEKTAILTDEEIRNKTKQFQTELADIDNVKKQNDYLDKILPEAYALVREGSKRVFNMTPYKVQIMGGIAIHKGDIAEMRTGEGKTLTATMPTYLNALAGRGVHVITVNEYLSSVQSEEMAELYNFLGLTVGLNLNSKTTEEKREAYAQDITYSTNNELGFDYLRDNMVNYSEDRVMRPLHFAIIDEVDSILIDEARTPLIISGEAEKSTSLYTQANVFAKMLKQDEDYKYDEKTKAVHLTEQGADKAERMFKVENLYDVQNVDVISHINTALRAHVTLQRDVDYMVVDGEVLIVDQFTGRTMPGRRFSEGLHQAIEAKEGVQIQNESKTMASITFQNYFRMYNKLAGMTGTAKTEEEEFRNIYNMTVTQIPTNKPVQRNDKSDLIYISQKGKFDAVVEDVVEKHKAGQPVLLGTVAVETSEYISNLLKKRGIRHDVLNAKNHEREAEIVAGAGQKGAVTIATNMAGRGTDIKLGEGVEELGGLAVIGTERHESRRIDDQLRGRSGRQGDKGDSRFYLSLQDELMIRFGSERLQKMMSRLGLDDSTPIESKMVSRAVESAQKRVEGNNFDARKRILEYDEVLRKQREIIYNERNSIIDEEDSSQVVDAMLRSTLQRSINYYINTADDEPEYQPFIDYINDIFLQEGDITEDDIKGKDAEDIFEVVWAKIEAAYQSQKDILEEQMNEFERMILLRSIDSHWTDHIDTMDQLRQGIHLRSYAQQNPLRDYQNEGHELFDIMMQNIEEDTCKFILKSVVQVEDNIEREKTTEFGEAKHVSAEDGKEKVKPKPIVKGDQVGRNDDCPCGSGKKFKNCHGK

[4] = system: S. aureus ATCC 6538; assay: Effects of light on bactericidal result; type: cell-based; settings: 40 µM, 2 hr, dark vs light
[5] = system: secretion of α-hemolysin, enterotoxin B, and TSST-1 by S. aureus Mu50; type: cell-based
[6] = system: S. aureus Mu50; type: cell-based; settings: 10 µM, mid-log phase (OD600 ≈ 2.6), first 15 hr
[7] = target: T1, SaSecA1; assay: Protein pull down assay from whole cell lysate; type: binding; settings: 400 µM, S. aureus ATCC 6538 lysate, Streptavidin magnetic beads, Western blot

`CC1(C)S[C@@H]2[C@H](NC(=O)[C@H](N)c3ccccc3)C(=O)N2[C@H]1C(=O)O` [Ampicillin] was tested, and the “MIC fold higher than that of SCA-50” value [1] was 250 fold.
`CC[C@H]1OC(=O)[C@H](C)[C@@H](O[C@H]2C[C@@](C)(OC)[C@@H](O)[C@H](C)O2)[C@H](C)[C@@H](O[C@@H]2O[C@H](C)C[C@H](N(C)C)[C@H]2O)[C@](C)(O)C[C@@H](C)C(=O)[C@H](C)[C@@H](O)[C@]1(C)O` [Erythromycin] was tested, and the “MIC fold higher than that of SCA-50” value [1] was 250 fold.
For `NC[C@H]1O[C@H](O[C@H]2[C@H](O)[C@@H](O[C@H]3O[C@H](CO)[C@@H](O)[C@H](N)[C@H]3O)[C@H](N)C[C@@H]2N)[C@H](O)[C@@H](O)[C@@H]1O` [Kanamycin], the “MIC fold higher than that of SCA-50” value [1] was 250 fold.
With `O=C([O-])c1c(Cl)c(Cl)c(Cl)c(Cl)c1-c1c2cc(I)c(=O)c(I)c-2oc2c(I)c([O-])c(I)cc12.[Na+].[Na+]` [RB, Rose Bengal] the “substrate of NorA efflux pump” value [2] was “substrate of NorA”.
`CO[C@H]1/C=C/O[C@@]2(C)Oc3c(C)c(O)c4c(O)c(c(/C=N/N5CCN(C)CC5)c(O)c4c3C2=O)NC(=O)/C(C)=C\C=C\[C@H](C)[C@H](O)[C@@H](C)[C@@H](O)[C@@H](C)[C@H](OC(C)=O)[C@@H]1C` [Rifampicin] was tested, and the “MIC fold higher than that of SCA-50” value [1] was 250 fold.
`CCCCCCC1c2ccc(O)cc2Oc2cc(O)ccc21` [SCA-50] was tested, and the “manner of inhibition of translocation related ATPase activity of SaSecA1” value [3] was “non-competitive”, the MIC ([1]; Staphylococcus aureus, MU50, read-out: MIC against S. aureus Mu50) was 12.5 µM (≈ 3.73 µg/mL) and the “effect of light on bactericidal effects” value [4] was “not obviously affected by light”. For the same molecule, the “amount of TSST-1 in the supernatant” value [5] was “significantly decreased”, the “amount of enterotoxin B in the supernatant” value [5] was “significantly decreased” and the “amount of α-hemolysin in the supernatant” value [5] was “significantly decreased”. The “amount of extracellular proteins in the supernatant” value ([5]; 10 µM) was “reduced the amount of many extracellular proteins” and the “OD600 reading compared with control” value [6] was “didn’t obviously change”.
`O=C(CCCC[C@@H]1SC[C@@H]2NC(=O)N[C@@H]21)NCCCCCCC1c2ccc(O)cc2Oc2cc(O)ccc21` [SCA-254] was tested, and the “pull down of SaSecA1 from whole cell lysates” value [7] was “could recognize and pull down SaSecA1”.
In the case of `CN[C@@H](CC(C)C)C(=O)N[C@H]1C(=O)N[C@@H](CC(N)=O)C(=O)N[C@H]2C(=O)N[C@H]3C(=O)N[C@H](C(=O)N[C@@H](C(=O)O)c4cc(O)cc(O)c4-c4cc3ccc4O)[C@H](O)c3ccc(c(Cl)c3)Oc3cc2cc(c3O[C@H]2O[C@@H](CO)[C@H](O)[C@@H](O)[C@@H]2O[C@@H]2C[C@@](C)(N)[C@@H](O)[C@@H](C)O2)Oc2ccc(cc2Cl)[C@H]1O` [Vancomycin], the “MIC fold higher than that of SCA-50” value [1] is reported as “two-fold higher”.
For polymyxin B [Polymxin B], the “Bacteriostatic effect MIC, S. aureus Mu50 (comparison with antibiotics)” value ([1]; Table 2, n = 6) was 31 µg/mL.
